Experimental data reported in PubChem BioAssay AID248 (DTP/NCI, 2004).
Values joined by “and” are separate entries in the source; they are usually repeats but may differ in a detail not shown here. Equal entries are not always repeated. Inconclusive results and toxic doses are left out. Cut-off read from the data, not from the text of the source: active = T/C of 150% or more; inactive = T/C below 125%. Peptide text beside a SMILES is read from it.

Tested on: L1210 leukemia ip in BDF1 mice, survival T/C
Assay: NCI In Vivo Anticancer Drug Screen. Data for tumor model L1210 Leukemia (intraperitoneal) in B6D2F1 (BDF1) mice
Settings: endpoint: mean survival time, higher = longer survival
Procedure, shortened: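 Transplanted-tumor mice were given test agent; controls received vehicle only. Survival readings from the two groups were divided (treated over control).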

[1] = dose: 100.0 mg/kg/injection, schedule: Q01DX001 (ip), vehicle: saline
[2] = dose: 200.0 mg/kg/injection, schedule: Q01DX001 (ip), vehicle: saline
[3] = dose: 400.0 mg/kg/injection, schedule: Q01DX001 (ip), vehicle: saline
[4] = dose: 25.0 mg/kg/injection, schedule: Q01DX009 (ip), vehicle: Klucel (hydroxypropylcellulose) (HPC)
[5] = dose: 50.0 mg/kg/injection, schedule: Q01DX009 (ip), vehicle: Klucel (hydroxypropylcellulose) (HPC)
[6] = dose: 100.0 mg/kg/injection, schedule: Q01DX009 (ip), vehicle: Klucel (hydroxypropylcellulose) (HPC)
[7] = dose: 100.0 mg/kg/injection, schedule: Q04DX003 (ip), vehicle: Klucel (hydroxypropylcellulose) (HPC)
[8] = dose: 200.0 mg/kg/injection, schedule: Q04DX003 (ip), vehicle: Klucel (hydroxypropylcellulose) (HPC)
[9] = dose: 100.0 mg/kg/injection, schedule: Q04DX002 (ip), vehicle: Klucel (hydroxypropylcellulose) (HPC)
[10] = dose: 200.0 mg/kg/injection, schedule: Q04DX002 (ip), vehicle: Klucel (hydroxypropylcellulose) (HPC)
[11] = dose: 100.0 mg/kg/injection, schedule: Q04DX003 (ip), vehicle: saline with Tween-80
[12] = dose: 200.0 mg/kg/injection, schedule: Q01DX009 (ip), vehicle: Klucel (hydroxypropylcellulose) (HPC)
[13] = dose: 200.0 mg/kg/injection, schedule: Q04DX003 (ip), vehicle: saline with Tween-80
[14] = dose: 400.0 mg/kg/injection, schedule: Q04DX003 (ip), vehicle: saline with Tween-80

Measured: T/C

CC(C)N(C(C)C)C(C)CCNc1c2ccccc2nc2cc(Cl)ccc12 (configuration not stated)
inactive: dose: 1.88 mg/kg/injection, schedule: Q01DX Z (ip), vehicle: methylcellulose (MC) 113 % of control | dose: 3.0 mg/kg/injection, schedule: Q01DX Z (ip), vehicle: methylcellulose (MC) 117 % of control | dose: 3.75 mg/kg/injection, schedule: Q01DX Z (ip), vehicle: methylcellulose (MC) 115 % of control | dose: 5.0 mg/kg/injection, schedule: Q01DX Z (ip), vehicle: methylcellulose (MC) 116 % of control | dose: 6.0 mg/kg/injection, schedule: Q04DX003 (ip), vehicle: saline 98 % of control | dose: 7.5 mg/kg/injection, schedule: Q01DX Z (ip), vehicle: methylcellulose (MC) 110 % of control | dose: 12.0 mg/kg/injection, schedule: Q04DX003 (ip), vehicle: saline 102 % of control | dose: 15.0 mg/kg/injection, schedule: Q01DX Z (ip), vehicle: methylcellulose (MC) 109 % of control | dose: 24.0 mg/kg/injection, schedule: Q04DX003 (ip), vehicle: saline 105 % of control

CCOc1cc2cc(C(=O)O)sc2cc1OCC
inactive: [1] 101 % of control | [2] 110 % of control | [3] 104 % of control

O=[N+]([O-])/C=C\c1ccc2c(c1)OCO2
inactive: [4] 87 % of control and 103 % of control | [5] 89 % of control and 100 % of control | [1] 106 % of control | [6] 103 % of control | [7] 102 % of control | [2] 119 % of control | [8] 97 % of control | [3] 97 % of control

Cc1ccc(CC(=O)c2c(C)[nH]c3ccccc23)cc1C
inactive: dose: 50.0 mg/kg/injection, schedule: Q01DX001 (ip), vehicle: saline 108 % of control | [1] 96 % of control | [2] 96 % of control | [3] 96 % of control

O=[N+]([O-])c1ccccc1Sc1ccc2c3c(cccc13)CN(CCCO)C2
inactive: [9] 90 % of control | [10] 108 % of control | dose: 400.0 mg/kg/injection, schedule: Q04DX002 (ip), vehicle: Klucel (hydroxypropylcellulose) (HPC) 104 % of control

CCN(CC)CCNC1CCCCC1
inactive: [11] 94 % of control

CC1(CCC(=O)O)SCSCS1
inactive: [7] 97 % of control | [8] 90 % of control | dose: 400.0 mg/kg/injection, schedule: Q04DX003 (ip), vehicle: Klucel (hydroxypropylcellulose) (HPC) 92 % of control

O=[N+]([O-])/C=C/c1ccccc1F
inactive: dose: 18.75 mg/kg/injection, schedule: Q04DX003 (ip), vehicle: Klucel (hydroxypropylcellulose) (HPC) 95 % of control | dose: 37.5 mg/kg/injection, schedule: Q04DX003 (ip), vehicle: Klucel (hydroxypropylcellulose) (HPC) 98 % of control | dose: 75.0 mg/kg/injection, schedule: Q04DX003 (ip), vehicle: Klucel (hydroxypropylcellulose) (HPC) 91 % of control

CN1CCC23c4ccccc4NC1C21CCN(C)C3Nc2ccccc21
inactive: dose: 6.25 mg/kg/injection, schedule: Q01DX Z (ip), vehicle: saline 97 % of control | dose: 12.5 mg/kg/injection, schedule: Q01DX Z (ip), vehicle: saline 110 % of control | dose: 25.0 mg/kg/injection, schedule: Q01DX Z (ip), vehicle: saline 100 % of control | dose: 50.0 mg/kg/injection, schedule: Q01DX Z (ip), vehicle: saline 101 % of control | [6] 107 % of control | [12] 96 % of control

COC(=O)c1ccccc1NC(OC)c1cccc([N+](=O)[O-])c1 (configuration not stated)
inactive: dose: 100.0 mg/kg/injection, schedule: Q01DX001 (ip), vehicle: saline with Tween-80 90 % of control | dose: 100.0 mg/kg/injection, schedule: Q04DX002 (ip), vehicle: saline with Tween-80 93 % of control and 89 % of control | [11] 92 % of control | dose: 200.0 mg/kg/injection, schedule: Q01DX001 (ip), vehicle: saline with Tween-80 92 % of control | dose: 200.0 mg/kg/injection, schedule: Q04DX002 (ip), vehicle: saline with Tween-80 86 % of control and 90 % of control | [13] 92 % of control | dose: 400.0 mg/kg/injection, schedule: Q01DX001 (ip), vehicle: saline with Tween-80 87 % of control | dose: 400.0 mg/kg/injection, schedule: Q04DX002 (ip), vehicle: saline with Tween-80 87 % of control | [14] 89 % of control

CCCCNC(=O)Nc1ccc(C)cc1
inactive: dose: 100.0 mg/kg/injection, schedule: Q01DX001 (ip), vehicle: carboxymethylcellulose (CMC) 100 % of control | dose: 200.0 mg/kg/injection, schedule: Q01DX001 (ip), vehicle: carboxymethylcellulose (CMC) 103 % of control | dose: 400.0 mg/kg/injection, schedule: Q01DX001 (ip), vehicle: carboxymethylcellulose (CMC) 97 % of control

CCCCCCC(CO)CO
inactive: [1] 89 % of control | [2] 91 % of control | [3] 94 % of control

Nc1nc(CCl)nc(Nc2ccccc2)n1
inactive: [6] 105 % of control | [7] 104 % of control | [12] 86 % of control | [8] 98 % of control

COc1ccc(C(=O)NO)cc1
inactive: dose: 100.0 mg/kg/injection, schedule: Q01DX009 (ip), vehicle: carboxymethylcellulose (CMC) 96 % of control | dose: 200.0 mg/kg/injection, schedule: Q01DX009 (ip), vehicle: carboxymethylcellulose (CMC) 102 % of control | dose: 400.0 mg/kg/injection, schedule: Q01DX009 (ip), vehicle: carboxymethylcellulose (CMC) 101 % of control

COc1cc(C(=O)NO)cc(OC)c1OC
inactive: [11] 97 % of control and 104 % of control | [13] 97 % of control and 110 % of control | [14] 97 % of control and 100 % of control

O=C(CNC(=O)OCc1ccccc1)NCCCCCCNCCCCCCNC(=O)CNC(=O)OCc1ccccc1
inactive: dose: 1.25 mg/kg/injection, schedule: Q01DX Z (ip), vehicle: saline 93 % of control | dose: 2.5 mg/kg/injection, schedule: Q01DX Z (ip), vehicle: saline 93 % of control | dose: 5.0 mg/kg/injection, schedule: Q01DX Z (ip), vehicle: saline 94 % of control | dose: 10.0 mg/kg/injection, schedule: Q01DX Z (ip), vehicle: saline 93 % of control

CCCCC(CCCC)NC(C)CO (configuration not stated)
inactive: dose: 75.0 mg/kg/injection, schedule: Q01DX001 (ip), vehicle: saline 102 % of control

NC(N)=NCCCC(N)C(=O)NC(CCC(=O)O)C(=O)O (stereo not drawn) (H-Arg-Glu-OH; configuration not given here)
inactive: dose: 25.0 mg/kg/injection, schedule: Q04DX002 (ip), vehicle: saline 98 % of control | dose: 50.0 mg/kg/injection, schedule: Q04DX002 (ip), vehicle: saline 121 % of control | dose: 100.0 mg/kg/injection, schedule: Q04DX002 (ip), vehicle: saline 110 % of control

CC(=O)OC12C(=O)OC(=O)C1(C)C1c3ccccc3C2c2ccccc21 (configuration not stated)
inactive: [4] 111 % of control | [5] 106 % of control | [6] 98 % of control

Clc1ccccc1OCC1CO1 (configuration not stated)
inactive: dose: 100.0 mg/kg/injection, schedule: Q01DX009 (ip), vehicle: saline with Tween-80 93 % of control | [11] 98 % of control | dose: 200.0 mg/kg/injection, schedule: Q01DX009 (ip), vehicle: saline with Tween-80 100 % of control | [13] 98 % of control | dose: 400.0 mg/kg/injection, schedule: Q01DX009 (ip), vehicle: saline with Tween-80 97 % of control | [14] 103 % of control

c1ccc(CN(CCCOc2ccccc2)Cc2ccccc2)cc1
inactive: [11] 103 % of control | [13] 103 % of control | [14] 97 % of control

CCN(CCCl)c1ccc(/C=C/C2=[N+](C)c3ccccc3C2(C)C)c(C)c1
inactive: dose: 0.78 mg/kg/injection, schedule: Q01DX009 (ip), vehicle: saline 106 % of control | dose: 1.56 mg/kg/injection, schedule: Q01DX009 (ip), vehicle: saline 97 % of control | dose: 3.13 mg/kg/injection, schedule: Q01DX009 (ip), vehicle: saline 112 % of control | dose: 6.25 mg/kg/injection, schedule: Q04DX003 (ip), vehicle: saline 96 % of control | dose: 12.5 mg/kg/injection, schedule: Q04DX003 (ip), vehicle: saline 86 % of control

Cc1c([N+](=O)[O-])cc(C(C)(C)C)c(OC(=O)C(Cl)(Cl)Cl)c1[N+](=O)[O-]
inactive: [9] 95 % of control | [10] 91 % of control

S=C(S)NCCc1ccccn1
inactive: [11] 95 % of control | [13] 87 % of control | [14] 98 % of control

CNC(=O)c1ccc[n+](CC(=O)Nc2ccccc2)c1
inactive: dose: 100.0 mg/kg/injection, schedule: Q04DX003 (ip), vehicle: saline 92 % of control | dose: 200.0 mg/kg/injection, schedule: Q04DX003 (ip), vehicle: saline 102 % of control
